Measured values as given in patent publication US20240270811A1, “Glycosylated Neuropeptide Derivative, Pharmaceutical Composition, Intranasal/Nasal Drop Formulation, and Use of Pharmaceutical Composition” (Tokyo University of Science Foundation, priority 2021, published 2024).
Where no end group is shown, it is not given here. The star is where a group is joined. Cam = NC(=O)C*

Experiments:
[1] = Solubility of GLP-2/GLP-1 derivatives with respect to aqueous medium (PBS); type: physicochemical
Experimental: Samples were prepared by dispensing a Milli-Q aqueous solution of PAS-CPP-GLP-2 (no sugar), PAS-CPP-GLP-2 (5-sugar) or PAS-CPP-GLP-2 (11-sugar) to a microtube by an amount of 5 nmol/tube, 30 nmol/tube, 60 nmol/tube, 120 nmol/tube or 200 nmol/tube, and freeze-drying the same. The freeze-dried samples were added with […] of PBS (Dulbecco's Phosphate Buffered Saline; Sigma-Aldrich, herein after the same), subjected to ultrasonic treatment, and allowed to stand overnight. Thereafter, the concentration of the peptide was measured. Specifically, a supernatant obtained by centrifuging the sample suspension was subjected to the measurement of OD (280 nm) with a spectrometer (NanoDrop™ 2000c spectrometer; Thermo Fisher Scientific K.K.)
Administration solutions were prepared by mixing a PAS-CPP-GLP-2 derivative (no sugar) or a PAS-CPP-GLP-2 derivative (11-sugar) with PBS. […] The concentration of each GLP-2 derivative was adjusted to 0.6 nmol/4 μL.
(§1) The concentration of a PAS-CPP-GLP-2 derivative (no sugar) or a PAS-CPP-GLP-2 derivative (11-sugar) was adjusted to 3.0 nmol/4 μL.

[2] = Migration to central nervous system, optical imaging of brain sagittal sections (ICG-labelled derivatives); type: in vivo, mouse; details: 3.0 nmol/4 μL intranasal
Experimental: Administration solutions were prepared by completely dissolving a PAS-CPP-GLP-2 derivative (no sugar) labelled with ICG or a PAS-CPP-GLP-2 derivative (11-sugar) labelled with ICG in DMSO, and adjusting the final concentration of DMSO to 16% by adding PBS.
as §1
After anesthetizing mice with isoflurane using an all-in-one small animal anesthetizer, the administration solutions or 16% DMSO as a control was intranasally administered to the mice by the amount of 2 μL per nose cavity, 4 μL in total.
In order to observe the migration to the brain over time, the brain was isolated 5 minutes, 10 minutes, 20 minutes, 60 minutes and 90 minutes after the intranasal administration, respectively, and subjected to infiltration fixation with 4% paraformaldehyde (4% PFA) solution overnight. Subsequently, a sagittal section with a thickness of 2 mm at the left and the right from the center of the brain was prepared using a brain matrix (RBM-2000S, ASI). The section was placed in a dish and analyzed with an optical imaging apparatus (Clairvivo OPT plus, Shimadzu Corporation) at an excitation wavelength of 785 nm, fluorescence wavelength of 849 nm, and an exposure time: 6 seconds.

[3] = Amount of migration to brain quantified by GLP-2 ELISA; type: in vivo; details: 6.0 nmol/mouse intranasal, brain isolated 20 minutes after administration
Experimental: Mice were intranasally administered with 16% DMSO or GLP-2 derivatives (6.0 nmol/mouse). The brain was isolated 20 minutes after the administration, and homogenized with BioMasher II (Nippi, Tokyo, Japan). A sample was prepared by performing centrifugal separation by 1000×g for 15 minutes and collecting a supernatant. The amount of a GLP-2 derivative in the sample was quantified using a GLP-2 ELISA kit. Specifically, a cleaning process including filling each well of a measurement plate with a cleaning fluid (350 μL) and suctioning the cleaning fluid with a pipette was performed three times. Subsequently, a labeled antigen solution (40 μL), a sample (25 μL) and a specific antibody solution (50 μL) were added in this order to the well and mixed. The measurement plate was tightly sealed and allowed to stand for 18 hours at 4° C. The cleaning process was performed three times, and a SA-HRP solution (100 μL) was added and allowed to permeate for 1.5 hours at room temperature (60 rpm). […] Finally, an enzyme reaction stop solution (100 μL) was added and an absorbance at 490 nm was measured with ARVO (PerkinElmer Japan Co., Ltd., Kanagawa, Japan) to calculate the concentration of a GLP-2 derivative.

[4] = test system: 7-week-old male ddY mouse; test: Forced swim test (FST) after intranasal administration; type: in vivo; details: 16% DMSO in PBS, 0.6 nmol/mouse intranasal, 20 minutes before test session
Experimental: Administration solutions were prepared by completely dissolving PAS-CPP-GLP-2 derivative (no sugar) or PAS-CPP-GLP-2 derivatives (11-sugar, 5-sugar) in DMSO and adding PBS such that the final concentration of DMSO was 16% by mass. The concentration of each GLP-2 derivative was adjusted to 0.6 nmol/4 μL.
After anesthetizing mice with isoflurane using an all-in-one small animal anesthetizer (MK-AT210D, Muromachi Kikai Co., Ltd., hereinafter the same), the solution was intranasally administered to the mice. Specifically, the intranasal administration was performed by contacting a tip of the anesthetizer to a nasal cavity in a horizontal manner such that the solution was inhaled by spontaneous respiration, by the amount of 2 μL per nose cavity, 4 μL in total (0.6 nmol/mouse). […]
A 7-week-old male ddY mouse is placed in a transparent plastic cylinder with a diameter of 18 cm and a height of 50 cm containing water at a temperature of 25° C.±1° C. to a height of 7 cm, and is allowed to swim for 15 minutes. […] The behavior of the mouse is recorded over the test session with a video camera. […] The time during which the mouse is in a state of immobility (immobility time) is measured in the first 6 minutes from the start of the test session. The existence or non-existence of anti-depressant-like effects is determined by the length of the immobility time. […]

Row | Substance | solubility with respect to PBS (FIG. 1) [1] | fluorescence in brain section ([2]; 10 minutes after administration) | fluorescence in brain section ([2]; 20 minutes after administration) | fluorescence in brain section ([2]; 60 minutes after administration) | amount of GLP-2 derivative in brain [3] | immobility time / anti-depressant-like effect vs control group [4]
1 | FFLIPKGRRRRRRRRGGHADGSFSDEMNTILDNLAARDFINWLIQTKITDC(Cam)-OH [PAS-CPP-GLP-2 (no sugar), reference compound] | not dissolved in PBS at all | fluorescence was observed at a region around the hippocampus | fluorescence was observed | fluorescence was not observed | below the detection limit | –
2 | glucagon-like peptide-2 (HADGSFSDEMNTILDNLAARDFINWLIQTKITD; GLP-2) | – | – | – | – | – | did not show a significant decrease in immobility time
